Measurements taken from PubChem BioAssay (NCI).
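All cell lines were grown in 96-well plates and treated with compound for 48 hours. GI50: concentration for 50% inhibition of growth. Definition used: TGI = concentration required for complete inhibition of growth.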

Columns and labels:
Experiment in all cases: NCI-60 cell line screen, 48 h
[1] = system: 786-0 renal
[2] = system: A498 renal
[3] = system: ACHN renal
[4] = system: BT-549 breast
[5] = system: CAKI-1 renal
[6] = system: CCRF-CEM leukemia
[7] = system: COLO 205 colon
[8] = system: DU-145 prostate
[9] = system: EKVX NSCLC
[10] = system: HCC-2998 colon
[11] = system: HCT-116 colon
[12] = system: HCT-15 colon
[13] = system: HL-60(TB) leukemia
[14] = system: HOP-62 NSCLC
[15] = system: HOP-92 NSCLC
[16] = system: HS 578T breast
[17] = system: HT29 colon
[18] = system: IGROV1 ovarian
[19] = system: K-562 leukemia
[20] = system: KM12 colon
[21] = system: LOX IMVI melanoma
[22] = system: M14 melanoma
[23] = system: MCF7 breast
[24] = system: MDA-MB-231 breast
[25] = system: MDA-MB-435
[26] = system: NCI-H226 lung
[27] = system: NCI-H23 lung
[28] = system: NCI-H460 lung
[29] = system: NCI/ADR-RES ovarian
[30] = system: OVCAR-4 ovarian
[31] = system: OVCAR-8 ovarian
[32] = system: PC-3 prostate
[33] = system: RPMI-8226 leukemia
[34] = system: RXF 393 renal
[35] = system: SF-268 CNS
[36] = system: SF-295 CNS
[37] = system: SF-539 CNS
[38] = system: SK-MEL-2 melanoma
[39] = system: SK-MEL-28 melanoma
[40] = system: SK-MEL-5 melanoma
[41] = system: SK-OV-3 ovarian
[42] = system: SNB-19 CNS
[43] = system: SNB-75 CNS
[44] = system: SR leukemia
[45] = system: SW-620 colon
[46] = system: T-47D breast
[47] = system: TK-10 renal
[48] = system: U251 CNS
[49] = system: UACC-257 melanoma
[50] = system: UACC-62 melanoma
[51] = system: UO-31 renal
[52] = system: A549 NSCLC
[53] = system: MALME-3M melanoma
[54] = system: MOLT-4 leukemia
[55] = system: NCI-H522 lung
[56] = system: OVCAR-3 ovarian
[57] = system: OVCAR-5 ovarian
[58] = system: SN12C renal

**Q.** With `O=C1NC(c2ccc3ccccc3c2)Nc2ccccc21` (stereo not given) as the compound, how does the TGI [1] read?
**A.** > 100 µM

**Q.** What about the TGI [2] of the same compound?
**A.** > 100 µM

**Q.** And the TGI [3]?
**A.** > 100 µM

**Q.** What about the TGI [4] of the same compound?
**A.** 37.1 µM

**Q.** And the TGI [5]?
**A.** > 100 µM

**Q.** And the TGI [6]?
**A.** > 100 µM

**Q.** And the TGI [7]?
**A.** > 100 µM

**Q.** What about the TGI [8] of the same compound?
**A.** > 100 µM

**Q.** What about the TGI [9] of the same compound?
**A.** > 100 µM

**Q.** And the TGI [10]?
**A.** > 100 µM

**Q.** And the TGI [11]?
**A.** > 100 µM

**Q.** And the TGI [12]?
**A.** > 100 µM

**Q.** What about the TGI [13] of the same compound?
**A.** > 100 µM

**Q.** What about the TGI [14] of the same compound?
**A.** > 100 µM

**Q.** And the TGI [15]?
**A.** > 100 µM

**Q.** What about the TGI [16] of the same compound?
**A.** > 100 µM

**Q.** What about the TGI [17] of the same compound?
**A.** > 100 µM

**Q.** And the TGI [18]?
**A.** > 100 µM

**Q.** What about the TGI [19] of the same compound?
**A.** 7.04 µM

**Q.** And the TGI [20]?
**A.** > 100 µM

**Q.** And the TGI [21]?
**A.** > 100 µM

**Q.** And the TGI [22]?
**A.** > 100 µM

**Q.** What about the TGI [23] of the same compound?
**A.** > 100 µM

**Q.** What about the TGI [24] of the same compound?
**A.** > 100 µM

**Q.** What about the TGI [25] of the same compound?
**A.** 50.7 µM

**Q.** What about the TGI [26] of the same compound?
**A.** > 100 µM

**Q.** What about the TGI [27] of the same compound?
**A.** > 100 µM

**Q.** And the TGI [28]?
**A.** > 100 µM

**Q.** And the TGI [29]?
**A.** > 100 µM

**Q.** And the TGI [30]?
**A.** > 100 µM

**Q.** And the TGI [31]?
**A.** > 100 µM

**Q.** What about the TGI [32] of the same compound?
**A.** > 100 µM

**Q.** And the TGI [33]?
**A.** 69.8 µM

**Q.** What about the TGI [34] of the same compound?
**A.** > 100 µM

**Q.** What about the TGI [35] of the same compound?
**A.** > 100 µM

**Q.** And the TGI [36]?
**A.** > 100 µM

**Q.** What about the TGI [37] of the same compound?
**A.** > 100 µM

**Q.** And the TGI [38]?
**A.** > 100 µM

**Q.** What about the TGI [39] of the same compound?
**A.** > 100 µM

**Q.** What about the TGI [40] of the same compound?
**A.** > 100 µM

**Q.** What about the TGI [41] of the same compound?
**A.** > 100 µM

**Q.** And the TGI [42]?
**A.** > 100 µM

**Q.** And the TGI [43]?
**A.** > 100 µM

**Q.** And the TGI [44]?
**A.** > 100 µM

**Q.** And the TGI [45]?
**A.** > 100 µM

**Q.** What about the TGI [46] of the same compound?
**A.** > 100 µM

**Q.** And the TGI [47]?
**A.** > 100 µM

**Q.** And the TGI [48]?
**A.** > 100 µM

**Q.** And the TGI [49]?
**A.** > 100 µM

**Q.** What about the TGI [50] of the same compound?
**A.** > 100 µM

**Q.** What about the TGI [51] of the same compound?
**A.** > 100 µM

**Q.** Which results are given for `CS(=O)(=O)N1CCC(Nc2ncc(C(=O)c3c(F)cccc3F)c(N)n2)CC1`?
**A.** GI50 [1]: 12.6 µM; TGI [1]: > 25 µM; GI50 [2]: 9.15 µM; TGI [2]: > 25 µM; GI50 [52]: 6.14 µM; TGI [52]: > 25 µM; GI50 [3]: 7.06 µM; TGI [3]: > 25 µM; GI50 [4]: > 20.7 µM; TGI [4]: > 25 µM; GI50 [5]: 8.76 µM; TGI [5]: > 25 µM; GI50 [6]: 9.91 µM; TGI [6]: > 25 µM; GI50 [7]: 6.26 µM; TGI [7]: > 25 µM; GI50 [8]: 9.76 µM; TGI [8]: > 25 µM; GI50 [10]: 12.9 µM; TGI [10]: > 25 µM; GI50 [11]: 6 µM; TGI [11]: > 25 µM; GI50 [12]: 11.8 µM; TGI [12]: > 25 µM; GI50 [13]: 8.65 µM; TGI [13]: > 25 µM; GI50 [14]: 12.6 µM; TGI [14]: > 25 µM; GI50 [15]: 1960 nM; TGI [15]: > 20.8 µM; GI50 [16]: 15.1 µM; TGI [16]: > 25 µM; GI50 [17]: 10.1 µM; TGI [17]: > 25 µM; GI50 [18]: 11.4 µM; TGI [18]: > 25 µM; GI50 [19]: 20.4 µM; TGI [19]: > 25 µM; GI50 [20]: 8.67 µM; TGI [20]: > 25 µM; GI50 [21]: 9.9 µM; TGI [21]: > 25 µM; GI50 [22]: 19.4 µM; TGI [22]: > 25 µM; GI50 [53]: 10.6 µM; TGI [53]: > 25 µM; GI50 [23]: 2110 nM; TGI [23]: > 25 µM; GI50 [24]: 11.9 µM; TGI [24]: > 25 µM; GI50 [25]: 11.1 µM; TGI [25]: > 25 µM; GI50 [54]: 11.2 µM; TGI [54]: > 25 µM; GI50 [26]: 7.27 µM; TGI [26]: > 25 µM; GI50 [27]: 8.6 µM; TGI [27]: > 25 µM; GI50 [28]: 4.25 µM; TGI [28]: > 25 µM; GI50 [55]: > 13.1 µM; TGI [55]: > 25 µM; GI50 [29]: > 25 µM; TGI [29]: > 25 µM; GI50 [56]: 13.7 µM; TGI [56]: > 25 µM; GI50 [30]: > 13.5 µM; TGI [30]: > 25 µM; GI50 [57]: 9.78 µM; TGI [57]: > 25 µM; GI50 [31]: 9.7 µM; TGI [31]: > 25 µM; GI50 [32]: 4.8 µM; TGI [32]: > 25 µM; GI50 [33]: 7.67 µM; TGI [33]: > 25 µM; GI50 [34]: 5.32 µM; TGI [34]: 17.9 µM; GI50 [35]: > 17.9 µM; TGI [35]: > 25 µM; GI50 [36]: 11.2 µM; TGI [36]: > 25 µM; GI50 [37]: 9.36 µM; TGI [37]: > 25 µM; GI50 [38]: > 20.9 µM; TGI [38]: > 25 µM; GI50 [39]: 18.6 µM; TGI [39]: > 25 µM; GI50 [40]: 7.65 µM; TGI [40]: > 25 µM; GI50 [41]: > 25 µM; TGI [41]: > 25 µM; GI50 [58]: 12.3 µM; TGI [58]: > 25 µM; GI50 [42]: 6.45 µM; TGI [42]: > 25 µM; GI50 [43]: > 10.9 µM; TGI [43]: 24.3 µM; GI50 [44]: 3.79 µM; TGI [44]: > 18.5 µM; GI50 [45]: 5.73 µM; TGI [45]: > 25 µM; GI50 [46]: 12 µM; TGI [46]: > 25 µM; GI50 [47]: 7.98 µM; TGI [47]: > 25 µM; GI50 [48]: 6.33 µM; TGI [48]: > 25 µM; GI50 [49]: 13.2 µM; TGI [49]: > 25 µM; GI50 [50]: 12.6 µM; TGI [50]: > 25 µM; GI50 [51]: 12 µM; TGI [51]: > 25 µM
